Experimental data as given in publication PMC8532876, “Can Immobilized Artificial Membrane Chromatography Support the Characterization of Antimicrobial Peptide Origin Derivatives?” (Antibiotics, 2021).
Ends that are not written are not given here.

Test: IAM-HPLC, chromatographic hydrophobicity index on an immobilized artificial membrane column
Type: physicochemical
Settings: IAM.PC.DD2 column, gradient 0–85% acetonitrile in 10-mM phosphoric buffer pH 7.4, 30.0 °C; calculated from retention time with calibration curve
Method: All HPLC experiments were carried out using a Prominence-1 LC-2030C 3D HPLC system (Shimadzu, Tokyo, Japan) equipped with an IAM.PC.DD2 column (10 mm × 4.6 mm; particle size 10.0 µm with an IAM guard column; Regis Technologies, Austin Ave, Morton Grove, IL, USA) and diode array detection (DAD). The HPLC system was controlled by LabSolution software (version 5.90, Shimadzu, Japan). The stock solutions of the solutes were diluted to obtain 100-µg/mL concentrations, and the injected volume was 10 µL, which was used for the analytes. The IAM-HPLC analyses were performed with a linear gradient of 0–85% in phase B (where phase A was 10-mM phosphoric buffer at pH 7.4, and phase B was acetonitrile) at a flow rate of 1.5 mL/min. The ultrapure water used for the mobile phase preparation was purified by the Millipore Direct-Q 3 UVWater Purification System (Millipore Corporation, Bedford, MA, USA). The other reagents used for the preparation of the mobile phase: acetonitrile, sodium phosphate dibasic dehydrate, and sodium phosphate monobasic monohydrate (Sigma-Aldrich, Steinheim, Germany) were analytical grade. During the chromatographic analysis, the temperature of the column was constant at 30.0 °C, and the analysis time was 6.5 min. The CHIAM indices of the target solutes were obtained using a calibration set of the reference substances using the protocol developed by Valko and coworkers. The reference substances were purchased, respectively: octanonophenone and butyrophenone acetanilide (Alfa Aesar, Haverhill, MA, USA); acetaminophen, acetophenone, levofloxacin, and ciprofloxacin (Sigma-Aldrich, Steinheim, Germany); and heptanophenone, hexanophenone, valerophenone, propiophenone, and acetophenone (Acros Organic, Pittsburg, PA, USA). Figure 2 presents a correlations plot of the CHIIAM indices of the model substances and experimentally determined retention times.

First: O=C(O)c1cn(C2CC2)c2cc(N3CCNCC3)c(F)cc2c1=O [Ciprofloxacin]
Second: C[C@H]1COc2c(N3CCN(C)CC3)c(F)cc3c(=O)c(C(=O)O)cn1c23 [Levofloxacin]
The CHIIAM of the first is lower: 19.70 for the first, 24.88 for the second.

Compared with “DVIKKVASVIG-NH2 [(4–14) Citropin, analog of citropin 1.1]”, “DVIKKVASVIGGL-NH2 [(4–16) Citropin, analog of citropin 1.1]” is higher in CHIIAM: 27.85 for the first, 38.24 for the second.

Compared with “GLFDVIK-NH2 [(1–7) Citropin, analog of citropin 1.1]”, “GLFDVIKASVIGGL-NH2 [(1–7)–(10–16) Citropin, analog of citropin 1.1]” is lower in CHIIAM: 42.15 for the first, 37.09 for the second.

Going from “GLFDVVIGGL-NH2 [(1–5)–(12–16) Citropin, analog of citropin 1.1]” to “KVASVIGGL-NH2 [(8–16) Citropin, analog of citropin 1.1]”, the CHIIAM rises from 28.66 to 45.95.

Test: not given
Design: method as in PMID 10906732, PMID 27084527
Settings: model substances of the IAM-HPLC calibration curve, protocol of Valko and coworkers ref 13, 14; cited from earlier work

Compared with `CC(=O)c1ccccc1` [acetable], `CCC(=O)c1ccccc1` [propiohenone] is higher in “CHIIAM of calibration set reference substances” value: 17.20 for the first, 25.90 for the second.

Compared with `CC(=O)Nc1ccc(O)cc1` [acetaminophen], `CC(=O)Nc1ccccc1` [acetanilidine] is higher in “CHIIAM of calibration set reference substances” value: 2.90 for the first, 11.50 for the second.

Going from `CCCC(=O)c1ccccc1` [butyrophenone] to `CCCCC(=O)c1ccccc1` [valerophenone], the “CHIIAM of calibration set reference substances” value rises from 32.00 to 37.30.

Compared with `CCCCCCC(=O)c1ccccc1` [heptanophenone], `CCCCCCCC(=O)c1ccccc1` [octanophenone] is higher in “CHIIAM of calibration set reference substances” value: 45.70 for the first, 49.4 for the second.

In the case of `CCCCCC(=O)c1ccccc1` [hexanophenone], the “CHIIAM of calibration set reference substances” value is given as 41.80.
